Read-outs that look alike come from different tables or passages of the source.
Experiments:
[1] = test system: MIA PaCa-2 cells (K-Ras G12C); assay: Ras-SOS cellular growth inhibition assay (CellTiter-Glo, 3D); type: cell-based; conditions: Homo sapiens
Summary of the method: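 MIA PaCa-2 cells grown in ultra-low-attachment plates (3D) in DMEM/Ham's F12 with 10% FCS and 2.5% horse serum, treated the day after seeding with a 9-point 3-fold compound series for about 5 days. Viability by CellTiter-Glo luminescence; IC50 from four-parameter fit.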

[2] = test system: NCI-H1975 cells (EGFR T790M L858R); assay: EGFR-SOS cellular inhibition assay (CellTiter-Glo, 3D); type: cell-based; conditions: Homo sapiens
[3] = target: SOS1 (Homo sapiens (Human), UniProt Q07889); assay: Ras-SOS interaction assay (HTRF); type: biochemical
[4] = MIA PaCa-2, 120 h, MIA PaCa-2, 3D proliferation, about 5 days, read-out: Bio-Cell-Prolif-3D (MiaPaca2 IC50)
[5] = MIA PaCa-2, MIA PaCa-2, read-out: IC50 in inhibiting MIA PaCa-2 cell growth
[6] = 120 h, NCI-H1975, 3D proliferation, about 5 days, read-out: Bio-Cell-Prolif-3D (H1975 IC50)
[7] = NCI-H1975, EGFR T790M L858R, read-out: IC50 in inhibiting growth of NCI-H1975 cell line
[8] = K-RasG13D utilized, read-out: IC50 inhibition of SOS
[9] = K-RasG13D, read-out: IC50 value against SOS1

SOS1, sequence (Q07889 564-1049): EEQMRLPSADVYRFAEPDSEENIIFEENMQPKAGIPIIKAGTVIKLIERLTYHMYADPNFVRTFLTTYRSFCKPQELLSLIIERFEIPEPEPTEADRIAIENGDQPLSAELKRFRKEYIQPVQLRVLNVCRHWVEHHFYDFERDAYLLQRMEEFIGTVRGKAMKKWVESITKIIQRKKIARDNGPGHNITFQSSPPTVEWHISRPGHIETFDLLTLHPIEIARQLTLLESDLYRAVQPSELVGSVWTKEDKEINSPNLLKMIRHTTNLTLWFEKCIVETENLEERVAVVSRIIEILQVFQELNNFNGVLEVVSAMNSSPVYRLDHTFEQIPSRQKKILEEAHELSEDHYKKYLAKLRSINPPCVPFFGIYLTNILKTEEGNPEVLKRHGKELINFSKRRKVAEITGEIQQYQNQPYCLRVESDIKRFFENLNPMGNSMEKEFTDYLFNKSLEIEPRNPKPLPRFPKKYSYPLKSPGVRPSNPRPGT

IC50 [1, 4]	IC50 [1, 5]	IC50 [2, 6]	IC50 [2, 7]	IC50 [3, 8]	IC50 [3, 9]	SMILES
1000 to 10000 nM	–	≤ 1000 nM	< 500 nM	< 100 nM	< 50 nM	CC(C)N1CCC(c2cc3c(N[C@H](C)c4cccc(C(F)F)c4F)ncnc3nc2OC2COC2)CC1 [Compound 317, (R)-N-(1-(3-(difluoromethyl)-2-fluorophenyl)ethyl)-6-(1-isopropylpiperidin-4-yl)-7-(oxetan-3-yloxy)pyrido[2,3-d] pyrimidin-4-amine]
≤ 1000 nM	< 500 nM	≤ 1000 nM	< 500 nM	< 100 nM	< 50 nM	COc1nc2nc(C)nc(N[C@H](C)c3cccc(C(F)F)c3F)c2cc1S(=O)(=O)C1CCN(C)CC1 [Compound 133, (R)-N-(1-(3-(difluoromethyl)-2-fluorophenyl)ethyl)-7-methoxy-2-methyl-6-((1-methylpiperidin-4-yl)sulfonyl)pyrido[2,3-d]pyrimidin-4-amine]
≤ 1000 nM	< 500 nM	≤ 1000 nM	< 500 nM	< 100 nM	< 50 nM	CNc1nc2nc(C)nc(N[C@H](C)c3cccc(C(F)F)c3F)c2cc1S(=O)(=O)C1CCN(C)CC1 [Compound 139, (R)-N4-(1-(3-(difluoromethyl)-2-fluorophenyl)ethyl)-N7,2-dimethyl-6-((1-methylpiperidin-4-yl)sulfonyl)pyrido[2,3-d]pyrimidine-4,7-diamine]
≤ 1000 nM	< 500 nM	≤ 1000 nM	< 500 nM	< 100 nM	< 50 nM	COc1nc2ncnc(N[C@H](C)c3cccc(C(F)(F)C4CCC(N(C)C)CC4)c3F)c2cc1C1CCS(=O)(=O)CC1 (stereo partly drawn) [Compound 289, (R)-4-(4-((1-(3-((4-(dimethylamino)cyclohexyl)difluoromethyl)-2-fluorophenyl)ethyl)amino)-7-methoxypyrido[2,3-d]pyrimidin-6-yl)tetrahydro-2H-thiopyran 1,1-dioxide]
≤ 1000 nM	< 500 nM	≤ 1000 nM	< 500 nM	< 100 nM	< 50 nM	COc1nc2nc(C)nc(N[C@H](C)c3cccc(C(F)(F)CO)c3F)c2cc1C1CCS(=O)(=O)CC1 [Compound 174, (R)-4-(4-((1-(3-(1,1-difluoro-2-hydroxyethyl)-2-fluorophenyl)ethyl)amino)-7-methoxy-2-methylpyrido[2,3-d]pyrimidin-6-yl)tetrahydro-2H-thiopyran 1,1-dioxide]

Second part, the compound before the results:

SMILES	IC50 [1, 4]	IC50 [1, 5]	IC50 [2, 6]	IC50 [2, 7]	IC50 [3, 8]	IC50 [3, 9]
CNc1nc2nc(C)nc(N[C@H](C)c3cccc(C(F)F)c3F)c2cc1C1CCS(=O)(=O)CC1 [Compound 136, (R)-4-(4-((1-(3-(difluoromethyl)-2-fluorophenyl)ethyl)amino)-2-methyl-7-(methylamino)pyrido[2,3-d]pyrimidin-6-yl)tetrahydro-2H-thiopyran 1,1-dioxide]	≤ 1000 nM	< 500 nM	≤ 1000 nM	< 500 nM	< 100 nM	< 50 nM
COCCOc1nc2nc(C)nc(N[C@H](C)c3cccc(C(F)F)c3F)c2cc1N1CCN(C(C)C)CC1 [Compound 360, (R)-N-(1-(3-(difluoromethyl)-2-fluorophenyl)ethyl)-6-(4-isopropylpiperazin-1-yl)-7-(2-methoxyethoxy)-2-methylpyrido [2,3-d]pyrimidin-4-amine]	≤ 1000 nM	< 500 nM	≤ 1000 nM	< 500 nM	< 100 nM	< 50 nM
Cc1c([C@@H](C)Nc2ncnc3nc(Cl)c(C4(C#N)CC4)cc23)cccc1C(F)(F)F [Compound 364, (R)-1-(7-chloro-4-((1-(2-methyl-3-(trifluoromethyl)phenyl)ethyl)amino)pyrido[2,3-d]pyrimidin-6-yl) cyclopropane-1-carbonitrile]	1000 to 10000 nM	–	≤ 1000 nM	< 500 nM	100 to 1000 nM	–
COc1nc2nc(C)nc(N[C@H](C)c3cccc(C(F)(F)F)c3F)c2cc1N1CCN(C(=O)CN(C)C)CC1 [Compound 312, (R)-2-(dimethylamino)-1-(4-(4-((1-(2-fluoro-3-(trifluoromethyl)phenyl)ethyl)amino)-7-methoxy-2-methylpyrido[2,3-d]pyrimidin-6-yl)piperazin-1-yl)ethan-1-one]	≤ 1000 nM	< 500 nM	≤ 1000 nM	< 500 nM	< 100 nM	< 50 nM
C[C@@H](Nc1ncnc2nc(Cl)c(C3CCS(=O)(=O)CC3)cc12)c1cccc(C(F)F)c1F [Compound 393, (R)-4-(7-chloro-4-((1-(3-(difluoromethyl)-2-fluorophenyl)ethyl)amino)pyrido [2,3-d]pyrimidin-6-yl)tetrahydro-2H-thiopyran 1,1-dioxide]	≤ 1000 nM	< 500 nM	≤ 1000 nM	< 500 nM	< 100 nM	< 50 nM
COc1nc2nc(C)nc(N[C@H](C)c3cccc(C(F)F)c3F)c2cc1C1(C#N)CCN(C(C)C)CC1 [Compound 117, (R)-4-(4-((1-(3-(difluoromethyl)-2-fluorophenyl)ethyl)amino)-7-methoxy-2-methylpyrido[2,3-d]pyrimidin-6-yl)-1-isopropylpiperidine-4-carbonitrile]	≤ 1000 nM	–	≤ 1000 nM	< 500 nM	< 100 nM	< 50 nM
Cc1nc(N[C@H](C)c2cccc(C(F)F)c2F)c2cc(C3CCN(C(C)C)CC3)c(Cl)nc2n1 [Compound 104, (R)-7-chloro-N-(1-(3-(difluoromethyl)-2-fluorophenyl)ethyl)-6-(1-isopropylpiperidin-4-yl)-2-methylpyrido[2,3-d]pyrimidin-4-amine]	≤ 1000 nM	< 500 nM	≤ 1000 nM	< 500 nM	< 100 nM	< 50 nM
COc1nc2nc(CCN3CCC3)nc(N[C@H](C)c3cccc(C(F)(F)F)c3F)c2cc1C1(C#N)CC1 [Compound 217, (R)-1-(2-(2-(azetidin-1-yl)ethyl)-4-((1-(2-fluoro-3-(trifluoromethyl)phenyl)ethyl)amino)-7-methoxypyrido[2,3-d]pyrimidin-6-yl)cyclopropane-1-carbonitrile]	≤ 1000 nM	–	≤ 1000 nM	< 500 nM	–	< 50 nM
Cc1nc(N[C@H](C)c2cccc(C(F)F)c2F)c2cc(N3CCN(C(C)C)CC3)c(NC3COC3)nc2n1 [Compound 192, (R)-N4-(1-(3-(difluoromethyl)-2-fluorophenyl)ethyl)-6-(4-isopropylpiperazin-1-yl)-2-methyl-N7-(oxetan-3-yl)pyrido[2,3-d] pyrimidine-4,7-diamine]	1000 to 10000 nM	–	≤ 1000 nM	–	< 100 nM	< 50 nM
CCN1CCN(c2cc3c(N[C@H](C)c4cccc(C(F)(F)F)c4C)nc(C)nc3nc2OC)CC1 [Compound 350, (R)-6-(4-ethylpiperazin-1-yl)-7-methoxy-2-methyl-N-(1-(2-methyl-3-(trifluoromethyl)phenyl)ethyl)pyrido [2,3-d]pyrimidin-4-amine]	≤ 1000 nM	< 500 nM	≤ 1000 nM	< 500 nM	< 100 nM	< 50 nM

— US11648254B2 (Kumquat Biosciences Inc., priority 2021, dated 2023)
